Laboratory results from patent US20260306525A1, “COMBINATION THERAPY GLUCOCORTICOIDS AND GINSENOSIDE” (FYTAGORAS B.V., priority 2023, published 2026).

Tested on: GR protein
Test: western blot GR protein level in HeLa cells
Type: cell-based, human
Conditions: for GR protein level, short-term: 6 h; for GR protein level, short-term / GR protein level, long-term: beclomethasone 1 μM, Rg1 20 μM or combination; for GR protein level, long-term: 24 h; for GR protein level in presence of cycloheximide (protein stability): long-term, with cycloheximide (5 μg/ml)
Experimental: HeLa (human cervical cancer) cells were cultured in Dulbecco's Modified Eagle's (DMEM) High Glucose (HG) medium without phenol red supplemented with 10% Fetal Calf Serum (FCS) and 10% Glutamax (Sigma-Aldrich). The cells were maintained at 37° C. and 5% CO2. At 24 h before adding the treatment, the medium was replaced by DMEM HG with 10% charcoal-inactivated serum and 10% Glutamax (Sigma-Aldrich). The cells were exposed to short- and long-term compound treatments. […] Subsequently, TNF-α (10 ng/ml) was added along with the compound treatments for 6 h (this last step was not added in the actinomycin-D and cycloheximide experiments).
Western blots were conducted to determine GR protein levels in HeLa cells. The cells were seeded as described previously in 6-well plates. The cells were exposed to short- and long-term compound treatments. […] Cells were harvested using trypsin (0.25% (v/v) trypsin in PBS, no EDTA), washed twice with PBS, and centrifuged. After centrifuging for 3 min at 3,000 rpm, cell pellets were stored at −80° C. until use. Cells were homogenized in potassium phosphate (KPi lysis buffer; 25 mM K2HPO4—KH2PO4 (pH 6.5)+0.1% (v/v) Triton X-100 (Merck, Darmstadt, Germany)) by sonication (20% amplitude, 3 s on, 3 s off for 4 cycles), using a Vibra-Cell™ VCX 130 sonicator (Sonics, Newtown, CT, USA), while on ice. The total protein concentration of the homogenates was determined using the Quickstart Bradford protein assay (Bio-Rad Laboratories) and measured using an EMax® plus microplate reader (Molecular Devices, Sunnyvale, CA, USA). HeLa cell homogenates (30 μg protein in 10 μl) were added to 30 μl Laemmli sample buffer, vortexed, and, boiled for 5 min at 98° C. Of each sample, 15 μl was loaded in duplicate on a 12% gradient precast SDS-PAGE gel (Bio-Rad Laboratories), and run for approximately 2 h at 90 V (no duplicates were used in the cycloheximide experiment). The experiments were performed 4 times (6 times for the cycloheximide experiment). After running the gel, proteins were transferred to a nitrocellulose membrane (Thermo Fisher Scientific) by using Bio-Rad Power Pac Basic Mini Electrophoresis System at 100 V for 1 h. The blot was washed in a blocking buffer (Tris-buffered saline containing 0.1% Tween-20 (TBST) with 3% BSA) 3 times for 15 min at room temperature. A primary GR antibody (Glucocorticoid Receptor Recombinant Rabbit Monoclonal Antibody (2D8, ThermoFisher Scientific)) at a 1:500 dilution in TBST with 3% BSA was added to the blots and incubated overnight at 4° C. The next day, the blot was washed with TBST 3 times for 5 min. Then, an HRP-conjugated anti-rabbit secondary antibody (Sigma-Aldrich) at 1:2000 dilution in TBST with 3% BSA was added and incubated at room temperature for 2 h. The blot was washed 3 times for 5 min in TBST with 3% BSA and twice for 5 min with TBST. The blot was incubated with 10 ml of Pierce™ enhanced chemiluminescence (ECL) western blotting substrate (ThermoFisher Scientific) for 1-2 min. Chemiluminescence was detected using a ChemiDoc MP imager (Bio-Rad Laboratories) at an exposure time of 1 min. The blot was washed 3 times for 5 min in TBST, then washed for 1 h in TBST with 3% BSA. A β-actin antibody (MA1-91399, ThermoFisher Scientific) was added at a 1:2000 dilution in TBST with 3% BSA to the blot and incubated overnight at 4° C. The next day, the blot was washed 3 times for 5 min in TBST with 3% BSA. Then, an HRP-conjugated anti-mouse secondary antibody (Sigma-Aldrich) at a 1:2000 dilution in TBST with 3% BSA was added and incubated at room temperature for 2 h. Subsequently, the blot was washed 3 times for 5 min in TBST. The blot was incubated with 10 ml of ECL substrate for 1-2 min, and chemiluminescence was visualized. The intensities of the GR and β-actin bands were quantified using ImageJ software, and the GR level was normalized to the level of β-actin.

Row | SMILES | GR protein level, short-term | GR protein level, long-term | GR protein level in presence of cycloheximide (protein stability)
1 | CC(C)=CCC[C@](C)(O[C@@H]1O[C@H](CO)[C@@H](O)[C@H](O)[C@H]1O)[C@H]1CC[C@]2(C)[C@@H]1[C@H](O)C[C@@H]1[C@@]3(C)CC[C@H](O)C(C)(C)[C@@H]3[C@@H](O[C@@H]3O[C@H](CO)[C@@H](O)[C@H](O)[C@H]3O)C[C@]12C [Rg1, (3β,6α, 12β)-3,12-Dihydroxydammar-24-ene-6,20-diyl bis-β-D-glucopyranoside] | did not affect the GR mRNA or GR protein level | did not affect the GR mRNA or GR protein level | protein stability is affected in a similar way as the mRNA levels by beclomethasone, and not Rg1
2 | C[C@H]1C[C@H]2[C@@H]3CCC4=CC(=O)C=C[C@]4(C)[C@@]3(Cl)[C@@H](O)C[C@]2(C)[C@@]1(O)C(=O)CO [beclomethasone, reference compound] | inhibited the expression of GR at both the mRNA and protein level | this inhibitory effect increased over time | protein stability is affected in a similar way as the mRNA levels by beclomethasone, and not Rg1
